Measured values published in US6355799B1, “Substituted benzene compounds, process for their preparation, and herbicidal and defoliant compositions containing them” (ISK Americas Incorporated, priority 1997, dated 2002).

What was measured:
Format in all cases: in vivo
[1] = system: barnyardgrass (Echinochloa crus-galli, ECHCG); assay: Pre-emerge test, greenhouse herbicide activity screening; settings: for Pre-emerge herbicidal activity, phytotoxicity rating ECHCG: rating scale 0-100, 14 days after application
Outline: (§1)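 Rating: 0–100 visual injury, 14 DAA. Application: acetone, 187 l/ha, 15–1000 g ai/ha, flat-fan track sprayer with nozzle 40–45 cm above soil or canopy. Post-emerge runs used 0.25% v/v surfactant on 2–3 leaf plants.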

[2] = system: green foxtail (Setaria viridis, SETVI); assay: as above; settings: for Pre-emerge herbicidal activity, phytotoxicity rating SETVI: rating scale 0-100, 14 days after application
Outline: as §1

[3] = system: ivyleaf morningglory (Ipomoea hederacea, IPOHE); assay: as above; settings: for Pre-emerge herbicidal activity, phytotoxicity rating IPOHE: rating scale 0-100, 14 days after application
Outline: as §1

[4] = system: johnsongrass (Sorghum halepense, SORHA); assay: as above; settings: rating scale 0-100, 14 days after application
Outline: as §1

[5] = system: lambsquarters (Chenopodium album, CHEAL); assay: as above; settings: for Pre-emerge herbicidal activity, phytotoxicity rating CHEAL: rating scale 0-100, 14 days after application
Outline: as §1

[6] = system: large crabgrass (Digitaria sanguinalis, DIGSA); assay: as above; settings: for Pre-emerge herbicidal activity, phytotoxicity rating DIGSA: rating scale 0-100, 14 days after application
Outline: as §1

[7] = system: sicklepod (Cassia obtusifolia, CASOB); assay: as above; settings: for Pre-emerge herbicidal activity, phytotoxicity rating CASOB: rating scale 0-100, 14 days after application
Outline: as §1

[8] = system: velvetleaf (Abutilon theophrasti, ABUTH); assay: as above; settings: for Pre-emerge herbicidal activity, phytotoxicity rating ABUTH: rating scale 0-100, 14 days after application
Outline: as §1

[9] = system: green foxtail (Setaria viridis, SETVI); assay: Post-emerge test, greenhouse herbicide activity screening; settings: Setaria viridis, post-emergence, 336 h, post-emerge, phytotoxicity rating 0-100 at 14 days after application, read-out: Post-emerge Herbicidal Activity SETVI; for pest or weed control at 63 g/ha: 63 g ai/ha; for pest or weed control at 250 g/ha: 250 g ai/ha
Outline: (§2)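 Plants grown in 10 cm pots of sandy loam mix received acetone-dissolved compounds through a moving flat-fan nozzle. Doses ranged from 15 to 1000 g ai/ha. Pre-emerge pots were seeded one day earlier, post-emerge pots 8–21 days earlier. Fourteen days on, each pot was graded 0–100 for damage.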

[10] = system: lambsquarters (Chenopodium album, CHEAL); assay: as above; settings: Chenopodium album, post-emergence, 336 h, post-emerge, phytotoxicity rating 0-100 at 14 days after application, read-out: Post-emerge Herbicidal Activity CHEAL; for pest or weed control at 63 g/ha: 63 g ai/ha; for pest or weed control at 250 g/ha: 250 g ai/ha
Outline: as §2

[11] = system: large crabgrass (Digitaria sanguinalis, DIGSA); assay: as above; settings: Digitaria sanguinalis, post-emergence, 336 h, post-emerge, phytotoxicity rating 0-100 at 14 days after application, read-out: Post-emerge Herbicidal Activity DIGSA; for pest or weed control at 63 g/ha: 63 g ai/ha; for pest or weed control at 250 g/ha: 250 g ai/ha
Outline: as §2

[12] = system: redroot pigweed (Amaranthus retroflexus, AMARE); assay: as above; settings: Amaranthus retroflexus, post-emergence, 336 h, post-emerge, phytotoxicity rating 0-100 at 14 days after application, read-out: Post-emerge Herbicidal Activity AMARE; for pest or weed control at 63 g/ha: 63 g ai/ha; for pest or weed control at 250 g/ha: 250 g ai/ha
Outline: as §2

[13] = system: sicklepod (Cassia obtusifolia, CASOB); assay: as above; settings: Senna obtusifolia, post-emergence, 336 h, post-emerge, phytotoxicity rating 0-100 at 14 days after application, read-out: Post-emerge Herbicidal Activity CASOB; for pest or weed control at 63 g/ha: 63 g ai/ha; for pest or weed control at 250 g/ha: 250 g ai/ha
Outline: as §2

[14] = system: velvetleaf (Abutilon theophrasti, ABUTH); assay: as above; settings: Abutilon theophrasti, post-emergence, 336 h, post-emerge, phytotoxicity rating 0-100 at 14 days after application, read-out: Post-emerge Herbicidal Activity ABUTH; for pest or weed control at 63 g/ha: 63 g ai/ha; for pest or weed control at 250 g/ha: 250 g ai/ha
Outline: as §2

For `COc1c(Cl)cc(F)c(N2C(=O)c3ccccc3C2=O)c1NC(=O)c1ccc2ccccc2c1` [Compound 13-3, N-[4-chloro-6-fluoro-3-methoxy-2-(2-naphthoyl)aminophenyl]phthalimide], the “Pre-emerge herbicidal activity, phytotoxicity rating ECHCG” value ([1]; 63 g ai/ha) was 0, the “Pre-emerge herbicidal activity, phytotoxicity rating ECHCG” value ([1]; 250 g ai/ha) was 10 and the “Pre-emerge herbicidal activity, phytotoxicity rating SETVI” value ([2]; 63 g ai/ha) was 10. For the same compound, the “Pre-emerge herbicidal activity, phytotoxicity rating SETVI” value ([2]; 250 g ai/ha) was 40, the “Pre-emerge herbicidal activity, phytotoxicity rating IPOHE” value ([3]; 63 g ai/ha) was 0 and the “Pre-emerge herbicidal activity, phytotoxicity rating IPOHE” value ([3]; 250 g ai/ha) was 0. For the same compound, the “Pre-emerge herbicidal activity, phytotoxicity rating SORHA” value ([4]; 63 g ai/ha) was 0, the “Pre-emerge herbicidal activity, phytotoxicity rating SORHA” value ([4]; 250 g ai/ha) was 10 and the “Pre-emerge herbicidal activity, phytotoxicity rating CHEAL” value ([5]; 63 g ai/ha) was 90. For the same compound, the “Pre-emerge herbicidal activity, phytotoxicity rating CHEAL” value ([5]; 250 g ai/ha) was 100, the “Pre-emerge herbicidal activity, phytotoxicity rating DIGSA” value ([6]; 63 g ai/ha) was 0 and the “Pre-emerge herbicidal activity, phytotoxicity rating DIGSA” value ([6]; 250 g ai/ha) was 30. The “Pre-emerge herbicidal activity, phytotoxicity rating CASOB” value ([7]; 63 g ai/ha) was 0, the “Pre-emerge herbicidal activity, phytotoxicity rating CASOB” value ([7]; 250 g ai/ha) was 30 and the “Pre-emerge herbicidal activity, phytotoxicity rating ABUTH” value ([8]; 63 g ai/ha) was 0. The “Pre-emerge herbicidal activity, phytotoxicity rating ABUTH” value ([8]; 250 g ai/ha) was 20, the pest or weed control at 63 g/ha [9] was 10% and the pest or weed control at 250 g/ha [9] was 30%. It also gave a pest or weed control at 63 g/ha [10] of 100%, a pest or weed control at 250 g/ha [10] of 100% and a pest or weed control at 63 g/ha [11] of 0%. For the same compound, the pest or weed control at 250 g/ha [11] was 10%, the pest or weed control at 63 g/ha [12] was 90% and the pest or weed control at 250 g/ha [12] was 90%. It also gave a pest or weed control at 63 g/ha [13] of 90%, a pest or weed control at 250 g/ha [13] of 100% and a pest or weed control at 63 g/ha [14] of 100%. The pest or weed control at 250 g/ha [14] was 90%.
`Cc1nn(-c2c(Cl)cc(Cl)cc2NC(=O)c2ccc3ccccc3c2)c(=O)n1C(F)F` [Compound 6-16] showed a pest or weed control at 63 g/ha ([1]; Echinochloa crus-galli, pre-emergence, 336 h, pre-emerge, rate 63 g ai/ha, phytotoxicity rating 0-100 at 14 days after application, read-out: Pre-emerge Herbicidal Activity ECHCG) of 10%, a pest or weed control at 250 g/ha ([1]; Echinochloa crus-galli, pre-emergence, 336 h, pre-emerge, rate 250 g ai/ha, phytotoxicity rating 0-100 at 14 days after application, read-out: Pre-emerge Herbicidal Activity ECHCG) of 30% and a pest or weed control at 63 g/ha ([2]; Setaria viridis, pre-emergence, 336 h, pre-emerge, rate 63 g ai/ha, phytotoxicity rating 0-100 at 14 days after application, read-out: Pre-emerge Herbicidal Activity SETVI) of 60%. It also gave a pest or weed control at 250 g/ha ([2]; Setaria viridis, pre-emergence, 336 h, pre-emerge, rate 250 g ai/ha, phytotoxicity rating 0-100 at 14 days after application, read-out: Pre-emerge Herbicidal Activity SETVI) of 90%, a pest or weed control at 63 g/ha ([3]; Ipomoea, pre-emergence, 336 h, pre-emerge, rate 63 g ai/ha, phytotoxicity rating 0-100 at 14 days after application, read-out: Pre-emerge Herbicidal Activity IPOHE) of 0% and a pest or weed control at 250 g/ha ([3]; Ipomoea, pre-emergence, 336 h, pre-emerge, rate 250 g ai/ha, phytotoxicity rating 0-100 at 14 days after application, read-out: Pre-emerge Herbicidal Activity IPOHE) of 0%. It also gave a pest or weed control at 63 g/ha ([5]; Chenopodium album, pre-emergence, 336 h, pre-emerge, rate 63 g ai/ha, phytotoxicity rating 0-100 at 14 days after application, read-out: Pre-emerge Herbicidal Activity CHEAL) of 100%, a pest or weed control at 250 g/ha ([5]; Chenopodium album, pre-emergence, 336 h, pre-emerge, rate 250 g ai/ha, phytotoxicity rating 0-100 at 14 days after application, read-out: Pre-emerge Herbicidal Activity CHEAL) of 100% and a pest or weed control at 63 g/ha ([6]; Digitaria sanguinalis, pre-emergence, 336 h, pre-emerge, rate 63 g ai/ha, phytotoxicity rating 0-100 at 14 days after application, read-out: Pre-emerge Herbicidal Activity DIGSA) of 30%. It also gave a pest or weed control at 250 g/ha ([6]; Digitaria sanguinalis, pre-emergence, 336 h, pre-emerge, rate 250 g ai/ha, phytotoxicity rating 0-100 at 14 days after application, read-out: Pre-emerge Herbicidal Activity DIGSA) of 90%, a pest or weed control at 63 g/ha ([7]; Senna obtusifolia, pre-emergence, 336 h, pre-emerge, rate 63 g ai/ha, phytotoxicity rating 0-100 at 14 days after application, read-out: Pre-emerge Herbicidal Activity CASOB) of 0% and a pest or weed control at 250 g/ha ([7]; Senna obtusifolia, pre-emergence, 336 h, pre-emerge, rate 250 g ai/ha, phytotoxicity rating 0-100 at 14 days after application, read-out: Pre-emerge Herbicidal Activity CASOB) of 0%. For the same compound, the pest or weed control at 63 g/ha ([8]; Abutilon theophrasti, pre-emergence, 336 h, pre-emerge, rate 63 g ai/ha, phytotoxicity rating 0-100 at 14 days after application, read-out: Pre-emerge Herbicidal Activity ABUTH) was 10%, the pest or weed control at 250 g/ha ([8]; Abutilon theophrasti, pre-emergence, 336 h, pre-emerge, rate 250 g ai/ha, phytotoxicity rating 0-100 at 14 days after application, read-out: Pre-emerge Herbicidal Activity ABUTH) was 20% and the pest or weed control at 63 g/ha [9] was 30%. For the same compound, the pest or weed control at 250 g/ha [9] was 60%, the pest or weed control at 63 g/ha [10] was 100% and the pest or weed control at 250 g/ha [10] was 100%. The pest or weed control at 63 g/ha [11] was 20%, the pest or weed control at 250 g/ha [11] was 30% and the pest or weed control at 63 g/ha [12] was 100%. For the same compound, the pest or weed control at 250 g/ha [12] was 90%, the pest or weed control at 63 g/ha [13] was 80% and the pest or weed control at 250 g/ha [13] was 60%. It also gave a pest or weed control at 63 g/ha [14] of 100% and a pest or weed control at 250 g/ha [14] of 100%.
